We go through 84 compounds from a melting point compilation (Tetko et al.; mined from patent text by program, amines drawn as free bases though some values may be those of a salt).

SMILES strings stand for the structures.

In the case of `NNc1ccc(-c2cccc(Cl)c2)nn1`, the melting point was 173 to 174 °C.
Turning to `O=C(Nc1ccc(Oc2ccc(C(O)CCC(=O)N3CCOCC3)cc2)c(F)c1)c1ccc(Cl)c(Cl)c1` (centres undefined), the melting point was 108 to 111 °C.
In the case of `COc1cc2c(cc1OC)-c1cc(=O)[nH]c(=O)n1CC2`, the melting point lay within 323 to 325 °C.
`Cn1c(C(F)(F)F)cc(=O)n(-c2c(F)cc(Cl)c3nc(C(C)(C)C)oc23)c1=O` had a melting point of 68 to 70 °C.
`O=C(O)CC(C(=O)O)C(=O)O` had a melting point of 157 to 159 °C.
Take `CC(C)C1c2ccc(F)cc2CCC1(O)CC(=O)O` (centres undefined): the melting point fell in the range of 102 to 104 °C.
In turn, `CCS(=O)(=O)N(c1cc([N+](=O)[O-])c(F)cc1Br)S(=O)(=O)CC` had a melting point of 144 to 146 °C.
Compound `Cc1nc(N2CCN(CC3CC3)C2=O)sc1C(=O)NCc1ncccc1F` displayed a melting point of 142 to 144 °C.
The compound `CC(C)c1nn2ccccc2c1SC#N` returned a melting point of 91 to 92.5 °C.
Regarding `COc1c(Br)cc(N)cc1C(C)=O`, the melting point lay within 93 to 94 °C.
As to `O=C1c2cccc3cccc(c23)C(=O)N1CCCCCCBr`, the melting point lay within 95 to 96 °C.
The compound `CC1C(=O)N(c2ccc(OCc3ccccc3)cc2)C(=S)N1c1ccccc1` (centres undefined) yielded a melting point of 155 °C.
Consider `CC1(CCN2C(=O)SC(=Cc3ccc(C(F)(F)F)cc3)C2=O)Cn2cc([N+](=O)[O-])nc2O1` (centres undefined), for which the melting point lay within 257 to 258 °C.
In turn, `COc1ccc(COC(=O)C2N3C(=O)C(N4C(=O)c5ccccc5C4=O)C3SCC2(C)O)cc1` (centres undefined) displayed a melting point of 216 to 217 °C.
For `CC(=O)OC1CSC(Oc2cccc(-c3cncc(F)c3)c2)C(OC(C)=O)C1OC(C)=O` (centres undefined), the melting point is 135 °C.
In turn, `COc1ccc(-c2cccc3c2N(S(=O)(=O)c2ccc(OC)cc2)CC3)cc1` showed a melting point of 176 to 177 °C.
For `NC(=O)c1ccc(C(F)(F)F)cc1N1CCc2nc(NS(=O)(=O)c3cc(C(F)(F)F)cc(C(F)(F)F)c3)sc2C1` the value was 225 to 228 °C.
The compound `CCNc1nc(=S)n(Cc2ccc(OC)c(OC3CCCC3)c2)c2nc(C(C)C)[nH]c12` gave a melting point of 72 to 77 °C.
As for `CCOC(=O)C(NC(C)=O)C(O)c1ccc(C=Cc2csc3ccccc23)s1` (centres undefined), the melting point was 157 to 159 °C.
On to `CC(C)OC(=O)c1nc(Cl)c(Cl)[nH]1`, for which the melting point was 168 °C.
The figure for `Cc1cc2c(-c3ccccc3Cl)c(NC(=O)Nc3ccc(Cl)cc3)c(=O)n(C)c2cc1C` is 207 to 209 °C; for `c1ccc2c(c1)OCC(CN1CCC(CNc3nc4cc5c(cc4s3)OCO5)CC1)O2` (centres undefined) it is 160 °C.
Compound `CN(C)CCSCc1c(CCN(C)C)[nH]c2ccccc12` yielded a melting point of 52 to 54 °C.
On to `CN(C)C=NS(=O)(=O)c1cc(CCNC(=O)C(F)(F)F)ccc1OCc1ccccc1`, for which the melting point was 103 °C.
Compound `O=C(Nc1ccc(OC(F)(F)F)cc1)NC1CCN(C(=O)C(F)(F)F)CC1` had a melting point of 150 to 154 °C.
For `CCOC(=O)NNc1cccc(Cl)n1`, the melting point was in the range of 139 to 141 °C.
Take `Cc1ccc(S(=O)(=O)N[C@@H]2COC(C)(C)OC[C@H]2OS(=O)(=O)c2ccc(C)cc2)cc1` (relative stereo): the melting point lay in the range of 200 to 202 °C.
The figure for `CC(C)(C)N(C=O)N=NNC=O` is 103 to 105 °C; for `COc1ccccc1C(=O)N1CCN(C(=O)CN2CCC(O)(c3ccccc3)CC2)C(c2ccc(Cl)c(Cl)c2)C1` (racemic) it is 112 to 114 °C.
Regarding `CCCCCc1c(-c2ccc3cc(OCc4nnn[nH]4)ccc3c2)n(C)c2ccccc12`, the melting point was 120 to 122 °C.
As for `COc1ccc(-n2nc(NC(=O)N(C)C)cc2-c2ccc(OCCO)cc2)cc1`, the melting point was in the range of 167 to 168 °C.
The figure for `O=[N+]([O-])c1ccc(OCc2ccc(Cl)cc2)cc1F` is 86 to 88 °C; for `Oc1ccc(C=C2C3=CC=CCC3=CCc3ccccc32)cc1` it is 56.9 °C.
As to `Cn1cc(-c2ccccc2)c(=O)c(-c2ccc(F)cc2Cl)c1`, the melting point was 190 to 192 °C.
For the compound `CCCn1ccc(=O)c(OC(=O)NCC(=O)OCC)c1C`, the melting point fell in the range of 96 to 97 °C.
In turn, `CN1CCCCC1CCc1ccccc1NC(=O)c1ccc(F)cc1` (centres undefined) gave a melting point of 116 °C.
The figure for `CCCCc1nn(-c2ccc([N+](=O)[O-])cc2C(F)(F)F)c(=O)n1Cc1ccc(-c2ccccc2S(=O)(=O)NC(C)(C)C)cc1` is > 78 °C.
Regarding `CC1(C2CCC3C4CCC5CC=CCC5(C)C4C(O)CC32C)OCCO1` (centres undefined), the melting point lay within 141 to 145 °C.
In turn, `N#CN1CCC(c2nn(-c3ccc(F)cc3)c3ccccc23)CC1` gave a melting point of 108 to 110 °C.
`CCOC(=O)COc1ccc2c(c1)C[C@@H](NC[C@H](O)c1ccccc1)CC2` came in with a melting point of 108 to 111 °C.
For the compound `CC(=O)N1CCc2cc(S(=O)(=O)n3c(COC(C)(C)C(=O)O)cc4cc(Cl)ccc43)ccc21`, the melting point was in the range of 142 to 144 °C.
The compound `Nc1ccc2c(c1)COc1cc(Nc3ccc(F)cc3F)ccc1C2=O` had a melting point of 184 to 193 °C.
With `O=S(=O)(Nc1cc(F)ccc1F)c1ccccc1`, the melting point was 115 °C.
`CCOC(=O)CCc1cc(-c2cc3ccccc3c(=O)o2)ccc1OC` returned a melting point of 105 to 106 °C.
For `Cc1oc(-c2ccccc2)nc1COc1ccc(Cn2cc(CCCC(=O)O)c(-c3ccccc3)n2)cc1` the value was 118 to 119 °C; for `CCCCc1nc2cc(-c3ccccc3)cc(C(=O)O)c2n1Cc1ccccc1Cl`, 236 to 238 °C; for `CN(C(=O)Nc1nc(OCC(F)(F)F)cc(OCC(F)(F)F)n1)c1ccc(CC(F)(F)F)s1`, 99 to 101 °C.
Take `Cc1cc(Nc2nc(-c3ccc(Cl)c(Cl)c3)nc3ccccc23)[nH]n1`: the melting point amounted to 274 °C.
In turn, `CCOCc1cnn2c(-c3cccc(C(F)(F)F)c3)ccnc12` yielded a melting point of 110 to 111 °C.
`CC(=O)C=Cc1ccc(NS(C)(=O)=O)c(Sc2ccc(F)cc2F)c1` had a melting point of 119 to 120 °C.
With `O=C(O)c1cccc(NC(=O)C(CS)Cc2noc3ccccc23)c1` (centres undefined), the melting point was 207 to 209 °C.
For `O=C1NC(=S)SC1=Cc1ccc2c(c1)N(OCc1ccccc1)C(=O)CO2` the value was > 300 °C.
In turn, `CC1(C)C(C=C(Cl)Cl)C1C(=O)O` (centres undefined) yielded a melting point of 86 °C.
The figure for `O=C(Nc1ccc(-n2nc(C3CC3)cc2C2CC2)c(F)c1)c1c(Cl)cncc1Cl` is 280 to 281 °C.
`CC1(CN=[N+]=[N-])COC(Cn2ccnc2)(c2ccc(Cl)cc2Cl)OC1` (centres undefined) displayed a melting point of 132 to 133 °C.
Compound `COC(=O)c1ccc2oc(-c3cc(C)ccc3OC)cc(=O)c2c1` returned a melting point of 154 to 156 °C.
With `CS(=O)(=O)c1ccc(-c2cnn(-c3cccc(S(C)(=O)=O)c3)c(=O)c2-c2ccc(F)cc2)cc1`, the melting point lay in the range of 141 to 142 °C.
For `COc1cc(Nc2nccc(-c3ccc(NCCCO)cc3)n2)cc(OC)c1OC` the value was 86 to 90 °C; for `c1ccc(COc2ccc(CCOc3ccc(CCNc4ncnc5nccnc45)cc3)cc2)cc1`, 120 to 122 °C; for `O=C1c2sccc2-n2cncc2[C@@H]2CCCN12`, 228 to 230 °C.
Consider `Cc1ccc(NC(=O)c2cc(Cl)ccc2NCC2CCN(C3CCCCC3)CC2)nc1`, for which the melting point lay within 176 to 178 °C.
`O=c1n(CCCF)nnn1-c1cc(Oc2ccc(O)cc2)c(Cl)cc1F` yielded a melting point of 157 to 159 °C.
As for `COc1cccc(C(=O)OC2CC3C(=O)NC4(C(=O)NS(=O)(=O)C5CC5)CC4C=CCOCCCC(NC(=O)OC(C)(C)C)C(=O)N3C2)c1` (centres undefined), the melting point lay in the range of 149 to 151 °C.
The figure for `C[C@@H]1CCN(C(=O)OC(C)(C)C)C[C@@H]1N(C)C(=O)OC(C)(C)C` is 118 °C.
The figure for `C#Cc1cn(-c2c(Cl)cc(OC(F)(F)F)cc2Cl)nc1C#N` is 95.2 to 96 °C; for `COc1cc(C(=O)O)ccc1-c1nc2cc(Cl)c(Cl)cc2[nH]1` it is > 250 °C.
In the case of `Cc1nnc(-c2ccc3occ(-c4cn[nH]c4)c3c2)o1`, the melting point fell in the range of 215 to 216 °C.
For `Cc1ccc(-c2ncc3c(n2)CCCCC3)nc1-c1ccncc1`, the melting point is 198 to 200 °C.
For `CCCCCN1C(=O)C(c2ccc3c(c2)OCO3)(c2cc3c(cc2O)OCO3)c2ccccc21` (centres undefined) the value was 75 to 76 °C.
The figure for `CCOc1ccc(Nc2nc(=O)cc(N)n2-c2ccccc2)cc1` is 111 to 113 °C; for `CC(=O)ON=C(N)c1ccc(C(=O)NCCCNC(=O)[C@@H]2CCCN2S(=O)(=O)c2ccc(Cl)c(COc3cccn4cc(C)nc34)c2Cl)cc1` it is 105 to 107 °C; for `COC(=O)c1cc(-c2nnnn2C)c(C(=O)OC)s1` it is 149 to 151 °C.
In the case of `CCCCOc1ccc(S(=O)(=O)C2(C(=O)NO)CCN(CCCC)CC2)cc1`, the melting point is 121 °C.
As for `N#CC1=C(c2ccc3ccccc3c2)Nc2n[nH]cc2C1c1cccc2nonc12` (centres undefined), the melting point was determined as 228 °C.
Compound `Cc1cc(-c2cc(C(F)F)n3ncc(C(=O)Nc4cccc(S(=O)(=O)N5CCCC5)c4)c3n2)ccc1C(F)(F)F` showed a melting point of 226 °C.
The figure for `CC(Oc1ccc(Oc2ccc(F)cc2)cc1)(C(=O)O)c1ccccc1` (centres undefined) is 113 to 115 °C; for `CC(=O)OC1CCC2(C)C(=CCC3C2CCC2(C)C(C(C)CCC(OC(C)=O)C(C)(C)OC(C)=O)CCC32)C1` (centres undefined) it is 121 to 122 °C; for `CC(C)(C)OC(=O)CC[C@H](NC(=O)c1ccc(C=Cc2cnc3nc(N)nc(N)c3c2)cc1)C(=O)OC(C)(C)C` it is > 300 °C.
The figure for `Cc1ccc(N(C=C(C#N)C#N)N=C(C#N)C#N)cc1` is 168 to 169 °C; for `O=C(OCC(Cl)(Cl)Cl)N1CCC(C2c3cccc4c3N(CC4)c3ccccc3N2C(=O)OCC(Cl)(Cl)Cl)CC1` (centres undefined) it is 202 to 205 °C.
For `CCOC(=O)CCC(CCCCNS(=O)(=O)c1ccc(Cl)cc1)CCOc1cccnc1` (centres undefined), the melting point is 90 to 93 °C.
In turn, `NC(=S)Nc1cc(C(F)(F)F)ccc1N1CCOCC1` displayed a melting point of 196 to 197 °C.
`CC(=O)CS(=O)(=O)C(c1ccc(Cl)cc1)c1ccc(Cl)cc1` gave a melting point of 114 to 115 °C.
The compound `O=Cc1cc([N+](=O)[O-])ccc1Br` gave a melting point of 86 to 88 °C.

A word on the melting point: it is the temperature, or range, at which the solid turns liquid.
